PMC10613275 (Scientific Reports, 2023)

What was measured:
[1] = set-up: method as in earlier work; details: rat, 1% p-BMHCA in ethanol, 120 µg substance/cm^2, 16 h ref 4; cited from earlier work
mouse lymphoma cells = system: mouse lymphoma cells; set-up: method as in earlier work; details: cited from earlier work
[2] = Metabolic activation with rat liver S9, GC/HRMS; assay type: in vitro ADME; details: 37 °C, 1 h; to lysmerylic acid and p-tert-butylbenzoic acid as major metabolites
Source text: Metabolic activation was verified using GC/HRMS as described above.

CHO-K1 cells (hprt gene) [3] = assay: CHO/HPRT mutation assay; assay type: cell-based, Chinese hamster; details: lilial 500 µM, 3MC 2 µg/ml
CHO-K1 cells (hprt gene) [4] = assay: CHO/HPRT mutation assay; assay type: cell-based, Chinese hamster; details: for Mutagenicity result: 50 µM without, 500 µM with metabolic activation
Experimental: The test with metabolic activation was performed as described in the OECD protocol, the ASTM standard[23] and other protocols[30],[31] and publications. For the test, cryopreserved CHO-K1 cells after the mutant cleansing were used. Mutant cleansing was performed according to[30], i.e. cells were cultivated three days in HAT medium, one day in HT medium and then frozen.
One passage after the thawing, 1 × 10^6 cells were seeded in 60 mm cultivation plates as described in[32]. […] The final concentration of the solvent, DMSO, was 1%. […] EMS at final concentration 2 mM as recommended in[31] served as a positive control. 3-MC at final concentration […][22] served as a positive control for metabolic activation. 1% DMSO was used as a VC. Sole cultivation medium served as a negative control (NC). After 4 h, the medium with tested substances was removed, plates were washed with PBS and fresh medium with 10% FBS was added.
During the expression period (1 week), the cells on all 60 mm plates were passaged once. On day 8, cells were trypsinized, resuspended, counted and 2 × 10^5 cells of each plate were seeded on 60 mm plates in triplicates in the presence of a selective agents, 6-TG (30 µM) as described in[32]. […] 300 cells without the selective agent were seeded in a parallel to evaluate plating efficiency (PE). On day 15, the plates were washed with PBS, cells were fixed with ice cold methanol for 10 min and stained with 0.05% crystal violet in water for 30 min[33]. After washing with water, formed colonies were counted using Schuett Count (Schuett-biotec, Göttingen, Germany). Calculations were done as described in[29]. PE was calculated according to a general Eq. 1. Particular PE at selective conditions was calculated according to Eq. 2. Particular PE at non-selective conditions was calculated according to Eq. 3. Mutation frequency (MF) was calculated according to Eq. 4.1 PE=numberofcoloniesformed/numberofcellsplated 2 PEselective=numberofmutantcoloniesNMC/200,000 3 PEnon-selective=numberofcoloniesformed/300 4 MF=PEselectiveconditions/PEnon-selectiveconditions

[5] = system: fertilized eggs of white turkey (Meleagris gallopavo); details: 10 mg/egg ref 6; cited from earlier work
NIH3T3 cells = details: NIH3T3 ref 2; cited from earlier work
HeLa cells = assay: γH2AX biomarker-based genotoxicity assay, HeLa; assay type: cell-based, human; details: for MoA (mean fluorescence values over area of the nuclei): PC 30 μM
Experimental: Briefly, HeLa and CHO-K1 cells were seeded at a concentration of 1 × 10^5 cells/ml into the 96-well plates. CHO-K1 cells were used for comparison with HPRT test. HeLa cells were recommended by the manufacturer of the kit. After 24 h, cells were rinsed with PBS and cultivation medium (“Cell lines” Section) without ATB, with a reduced content of FBS (5%) was added. 30 µM valinomycin (in DMSO) was used as a positive control Samples were applied in the presence of non-toxic sample concentrations, i.e. 100 µM either with or without S9 mix. […] Cells were photographed using a fluorescence microscope (Olympus IX83); filters: DAPI (500 ms) and Cy3 (500 ms). Bioimage analysis in ImageJ software was performed as described previously.

Salmonella strains = details: up to 5000 µg/plate with or without metabolic activation ref 4; cited from earlier work
rats = details: rat, in vivo; cited from earlier work
CHO-K1 cells = assay: Cytotoxicity, cell viability (resazurin assay), CHO-K1, with or without S9 mix; details: 1 day
[6] = system: MCF-7 human breast cancer cells; details: cited from earlier work
HaCaT cells = details: 10 µM ref 2; cited from earlier work
NF-κB signal pathway = NF-κB signal pathway activation, luciferase reporter in transfected HEK293; assay type: cell-based, human; details: HEK293, 100 µM (Table 1), 5 h
Source text: […]. HEK293 cells were transiently transfected with reporter plasmid pGL4.32 (luc2P/NF-κB-RE/Hygro, Promega Corporation, Madison, Wisconsin, USA) or pGL4.37 (luc2P/NRF2-ARE/Hygro) using FuGENE (Promega Corporation). Plasmid pEGFP-C1 carrying the gene for green fluorescent protein (GFP) was co-transfected with the reporter plasmids as a normalization plasmid enabling normalization of the signal to transfection level. […] To test the activation of NRF2-ARE pathway, tert-butyl hydroquinone (TBHQ, in the range from 4 to 63 µM) as a positive control or samples (50 µM) were incubated with the cells for 18 h. The fluorescence (488/513 nm) was determined using SpectraMax i3x Multi-Mode Microplate Reader (Molecular Devices, San Jose, California, USA). Subsequent quantification of luciferase activity was performed using the Bright-Glo™ Luciferase Assay System (Promega Corporation) according to the manufacturer’s instructions.

Hek293 cells = details: Hek293 ref 2; cited from earlier work
dogs = details: dog, in vivo; cited from earlier work
androgen receptor = assay: Androgenic activity, transactivation luciferase assay in MDA-kb2; details: 1 nm–100 µM, MDA-kb2
Source text: Results were expressed as fold induction (FI), i.e. fold increase compared to vehicle control. According to EPA[28], FI of positive control should be above 4 to meet the performance standard.

CC(C=O)Cc1ccc(C(C)(C)C)cc1 (stereo not shown) [Lilial, 3-(4-(tert-butyl)phenyl)-2-methylpropanal]
In vitro dermal absorption [1]: 78.4%
Mouse lymphoma assay outcome (mouse lymphoma cells): negative outcome
Metabolism in presence of Arochlor-induced rat liver S9 fractions [2]: almost completely metabolised
MF (/106) mutation frequency (CHO-K1 cells (hprt gene) [3]; Table 4, With S9): 6 ± 5 /106
NMC (number of mutant colonies) (CHO-K1 cells (hprt gene) [3]; Table 4, Without S9): 0
Mutagenicity result (CHO-K1 cells (hprt gene) [4]): Non mutagenic
Mutagenicity result (CHO-K1 cells (hprt gene) [4]; listed as lilial): not mutagenic
MF (/10^6) mutation frequency (CHO-K1 cells (hprt gene) [4]; Table 3, without activation, lilial 50 µM, EMS 240 µg/ml (2 mM), 4 h): 9 ± 4 /10^6
NMC (number of mutant colonies) (CHO-K1 cells (hprt gene) [4]; Table 4, With S9, lilial 500 µM, 3MC 2 µg/ml): 1 ± 1
DNA strand breaks in the comet assay [5]: 2.0 fold
Effect on cell viability (NIH3T3 cells): no negative effect
Genotoxicity result (HeLa cells; 100 µM): Non genotoxic
MoA (mean fluorescence values over area of the nuclei) (HeLa cells; 4h_S9, lilial 100 µM): 0.20
MoA (mean fluorescence values over area of the nuclei) (HeLa cells; 4 h, without S9, lilial 100 µM): 0.11
MoA (mean fluorescence values over area of the nuclei) (HeLa cells; 24 h, lilial 100 µM): 0.03
Mutagenic activity, Ames test (Salmonella strains): increased number of revertant colonies were detected only for the Salmonella strain TA1535, but it was not reproducible
Oral dose that reduced body weight, gave clinical and systemic toxicity (rats): ≥ 50 mg/kg/day
Toxic concentration (CHO-K1 cells; 5 nm–500 µM, without S9): ≥ 250 µM
Cytotoxicity result after metabolization by the S9 mix (CHO-K1 cells; up to 500 µM, with S9 mix): no cytotoxicity
Estrogenic activity (expression of transfected reporter and endogenous pS2 gene) ([6]; MCF7 in vitro ref 8): very weak estrogenic activity
Cell doublings ([6]; lilial 100 µM, estrogen 10 nM, unaffected control 1.8 doublings ref 8): 2.4 doublings
Decrease in cell viability (HaCaT cells): 65%
NF-κB signal pathway activation result (NF-κB signal pathway): Non activator
NF-κB signal pathway activation result (NF-κB signal pathway; listed as lilial): neither the NF-kB (Fig. 7) nor NRF2 (Fig. 8) signalling pathway was activated
Effect on cell viability (Hek293 cells): no negative effect
Oral dose that reduced body weight, gave clinical and systemic toxicity (dogs): ≥ 200 mg/kg/day
Androgenic activity (agonist) result (androgen receptor): Non active up to 100 µM
Androgenic activity (agonist) result (androgen receptor; listed as lilial): no activity was detected
